Source: EP0211354A2, “Nucleosides and their use as antineoplastic agents” (MERRELL DOW PHARMACEUTICALS INC., priority 1985, dated 1987)
Marks after values point to notes of the source that are not given here.

Experiments:
Hela Cells = assay: Growth of Hela cells in culture (cell count after 72 hours); format: cell-based
Description: Hela cells (1 × 10⁵/35 mm dish) were plated and incubated at 37°C in a CO₂ (5%) incubator. Media containing different dilutions of MDL 27,069 were added after overnight incubation. At the end of 72 hours, the cells were collected by trypsinization and counted using a coulter counter. *All cells were killed.

L1210 mouse leukemia = assay: Antitumor activity against L1210 mouse leukemia (survival time); format: in vivo; details: for CURES: cured = surviving more than 30 days
Description: 1 × 10⁵ L1210 leukemia cells per animal were injected i.p. on day 0. Treatment with the drug was started on day 1. The compound was dissolved in sterile water and administered i.p. at the doses indicated from day 1 to day 9 once daily. Therapeutic effect of the compound was determined by determining the survival time of the treated group in comparison with control group as follows: [formula] *Animals surviving for more than 30 days are considered cured.

[1] = 0,01 mg/kg i.p. once daily day 1 to day 9
[2] = 0.25 mg/kg i.p. once daily day 1 to day 9
[3] = 0.5 mg/kg i.p. once daily day 1 to day 9
[4] = 1.0 mg/kg i.p. once daily day 1 to day 9

Nc1ccn([C@@H]2O[C@H](CO)[C@@H](O)C2(F)F)c(=O)n1 [MDL 27,069, 2'-desoxy-2',2'-difluorocytidine]
Cell Number (Hela Cells; 0.00062 μg/ml): 2.0 X10^5
Cell Number (Hela Cells; 0.00125 μg/ml): 1.17 X10^5
Cell Number (Hela Cells; 0.0025 μg/ml): 0.51 X10^5
Cell Number (Hela Cells; 0.005 μg/ml): 0.36 X10^5
Cell Number (Hela Cells; 0.01 μg/ml, *All cells were killed): 0* X10^5
inhibition at 0.00062 µg/mL (Hela Cells; Homo sapiens, 0.00062 μg/ml): 48%
inhibition at 0.00125 µg/mL (Hela Cells; Homo sapiens, 0.00125 μg/ml): 70%
inhibition at 0.0025 µg/mL (Hela Cells; Homo sapiens, 0.0025 μg/ml): 87%
inhibition at 0.005 µg/mL (Hela Cells; Homo sapiens, 0.005 μg/ml): 91%
inhibition at 0.01 µg/mL (Hela Cells; Homo sapiens, 0.01 μg/ml): 100%
MEAN SURVIVAL TIME (L1210 mouse leukemia; [1]): 13.25 days
o/o T/C (L1210 mouse leukemia; [1]): 189 o/o
CURES (L1210 mouse leukemia; [1]): 0/5
MEAN SURVIVAL TIME (L1210 mouse leukemia; [2]): 13.40 days
o/o T/C (L1210 mouse leukemia; [2]): 191 o/o
CURES (L1210 mouse leukemia; [2]): 0/5
o/o T/C (L1210 mouse leukemia; [3]): 249 o/o
CURES (L1210 mouse leukemia; [3]): 0/5
MEAN SURVIVAL TIME (L1210 mouse leukemia; [4]): 20.0 days
o/o T/C (L1210 mouse leukemia; [4]): 286 o/o
CURES (L1210 mouse leukemia; [4]): 2/5*
